Source: patent US12419837B2, “Liposomal composition containing mild acidic active agent” (TAIWAN LIPOSOME COMPANY, LTD., priority 2016, dated 2025)
Like-named read-outs stand apart in the source and are kept apart here.

What was measured:
Solubility = assay type: physicochemical; details: PGE1 as API
[1] = cited from earlier work

For `CCCCC[C@H](O)/C=C/[C@H]1[C@H](O)CC(=O)[C@@H]1CCCCCCC(=O)O` [PGE1, Prostaglandin E1], the “solubility in tert-Butyl alcohol (TBA)” value (Solubility) is given as “soluble”, the solubility in water (Solubility) is given as “water-insoluble” and the “half life in human body” value ([1]; human body (b5)) is given as “about 30 seconds”. The “half life in human body” value ([1]; human body) was 0.5 min and 10 min.
